US4202891A, “15-Oxygenated sterol compounds and the use of such compounds to inhibit the biosynthesis of sterols” (priority 1977, dated 1980)

Columns and labels:
[1] = test system: sterol biosynthesis in L cells; assay: Inhibition of sterol synthesis from [1-14C]acetate in L cell cultures; assay type: cell-based; settings: Mus musculus; L cell cultures; read-out: Concentrations Required for 50% Inhibition of Sterol Synthesis
In short: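 Mouse L cells (NCTC clone 929 subline) in serum-free defined medium, preincubated 4 h with 15-oxygenated sterols, then given [1-14C]acetate at 4 μmoles per ml (4 μCi per ml). Sterol synthesis expressed as [14C]sterols/[14C]fatty acids ratio; 50% inhibitory concentration located over at least 4 compound concentrations.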

[2] = test system: sterol biosynthesis in primary cultures of mouse liver cells; assay: Inhibition of sterol synthesis from [1-14C]acetate in primary cultures of liver cells; assay type: cell-based; settings: primary cultures of liver cells, read-out: Concentrations Required for 50% Inhibition of Sterol Synthesis
Description: The effect of various 15-oxygenated sterols on sterol biosynthesis in L cells and in primary cultures of mouse liver cells was tested essentially under conditions described in detail previously [A. A. Kandutsch and H. W. Chen, J. Biol. Chem., Vol. 248, pp. 8408-8417 (1973) and A. A. Kandutsch and H. W. Chen, J. Biol. Chem., Vol. 249, pp. 6057-6061 (1974`)].
The primary liver cell cultures were prepared from 16-day-old (C57BL/6J fetuses and grown in chemically defined medium (serum-free) as described in the above cited publications. The L cells, a subline of NCTC clone 929 mouse fibroblasts, were grown in chemically defined medium (serum-free) as described in the publications. These L cells are transformed fibroblasts which are regarded as malignant since they will grow as tumors if injected into the mouse strain from which they were initially obtained.
The preparation of steroid-containing media, procedures for assays of the conversion of [1-^14 C]acetate into digitonin-precipitable sterols, fatty acids, and CO2 and methods for the measurement of DNA, protein, and HMG-CoA reductase were as described in the published articles. L cell cultures were preincubated with the 15-oxygenated sterols and their derivatives for 4 hours, then [1-^14 C]acetate was added at a concentration of 4 μmoles per ml (4 μCi per ml); or the L cell cultures were incubated for 5 hours with the 15-oxygenated sterols before they were harvested for determination of microsomal HMG-CoA reductase activity.
Conditions for incubating the 15-oxygenated sterols or their derivatives with liver cell cultures were similar to those described for L cell cultures except that the cultures were incubated with the test compounds for 12 hours before labeled acetate was added or before they were harvested for enzyme assay.
The test compounds were tested over a range of at least 4 concentrations and the assay was repeated until the concentration of test compound required to produce 50% inhibition was located on the steeply declining portion of an activity vs. concentration plot. To diminish any possible effects of generalized differences in cellular metabolism, the rates of sterol synthesis from [1-^14 C]acetate were calculated as the ratio of [^14 C]sterols to [^14 C]fatty acids as described in the two cited articles by Kandutsch and Chen.

[3] = Body weight of rats, sterol in diet; assay type: in vivo, rat (male, Sprague-Dawley)
Description: Male rats of the Sprague-Dawley strain were purchased from Sprague-Dawley Farms (Madison, Wisconsin). The rats were maintained on a light (7:00 A.M.-5:30 P.M.)--dark (5:30 P.M.-7:00 A.M.) cycle and fed a Cholesterol Free Test Diet (United States Biochemical Corporation, Cleveland, Ohio) for a period of 13 days prior to the initiation of the experimental period. Six days prior to the initiation of the experimental period blood samples were taken for assay of serum cholesterol concentration and, based upon the results of these analyses, rats were divided into 3 groups with approximately the same mean serum cholesterol concentration. The rats were then individually housed in metabolic cages (Econo-Metabolism Units, Maryland Plastics, New York, New York) for 6 days prior to the initiation of the experimental period. The animals were maintained on the light-dark cycle throughout the experimental period.
The individual animals were weighed daily throughout the experimental period. Food consumption by the individual rats was similarly recorded daily. No significant spillage of the food or contamination of the food by feces or urine was possible due to the nature of the matabolic cage and the food receptacles utilized.
5α-Cholest-8(14)-en-3β-ol-15-one (500 mg), prepared and purified as described in Example 1, was added in small portions to 500 g of the Cholesterol Free Test Diet in a 2 liter glass stoppered bottle. After each addition of the sterol to the diet, the bottle was rolled and shaken thoroughly. The resulting 0.1% diet with respect to the 5α-cholest-8(14)-en-3β-ol-15-one was stored at 4° C. Prior to use in feeding, the diet was allowed to warm to room temperature (~25° C.).
2. Ketone group--7 rats with free access to the Cholesterol Free Test Diet containing 0.1% 5α-cholest-8(14)-en-3β-ol-15-one.
(§1) Another experiment following essentially the procedure of Example 43 was performed in which the 5α-cholest-8(14)-en-3β-ol-15-one was incorporated into the Cholesterol Free Test Diet at a concentration of 0.2%.

[4] = Adverse observations in rats on 0.2% ketone diet; assay type: in vivo, rat (male, Sprague-Dawley); settings: 0.2% in diet
Description: as §1

CC(C)CCC[C@@H](C)[C@H]1CC(=O)C2=C3CC[C@H]4C[C@@H](O)CC[C@]4(C)[C@H]3CC[C@@]21C [5α-Cholest-8(14)-en-3β-ol-15-one, 5α-cholest-8(14)-en-3β-ol-15-one]
IC50 [1]: 0.1 µM | IC50 [2]: 4 µM | Body weight ([3]; 0.1% in diet, day 0): 130.4 ± 4.4 g | Body weight ([3]; 0.1% in diet, day 1): 126.6 ± 4.8 g | Percentage change in weight from initial in individual rats ([3]; 0.1% in diet, day 1): -3.0 ± 0.7% | Body weight ([3]; 0.1% in diet, day 2): 121.4 ± 4.4 g | Percentage change in weight from initial in individual rats ([3]; 0.1% in diet, day 2): -7.0 ± 0.7% | Body weight ([3]; 0.1% in diet, day 3): 120.6 ± 4.6 g | Percentage change in weight from initial in individual rats ([3]; 0.1% in diet, day 3): -7.7 ± 0.7% | Body weight ([3]; 0.1% in diet, day 4): 118.5 ± 4.0 g | Percentage change in weight from initial in individual rats ([3]; 0.1% in diet, day 4): -9.1 ± 0.7% | Body weight ([3]; 0.1% in diet, day 5): 119.4 ± 4.3 g | Percentage change in weight from initial in individual rats ([3]; 0.1% in diet, day 5): -8.5 ± 0.5% | Body weight ([3]; 0.1% in diet, day 6): 118.9 ± 4.8 g | Percentage change in weight from initial in individual rats ([3]; 0.1% in diet, day 6): -8.7 ± 1.0% | Body weight ([3]; 0.1% in diet, day 7): 116.5 ± 4.9 g | Percentage change in weight from initial in individual rats ([3]; 0.1% in diet, day 7): -10.8 ± 1.3% | Percentage change in weight from initial in individual rats ([3]; 0.1% in diet, day 8): -10.2 ± 0.9% | Body weight ([3]; 0.1% in diet, day 8, listed as Ketone): 117.3 ± 4.7 g | Body weight ([3]; 0.1% in diet, day 8, listed as ketone): 117.3 g | Body weight ([3]; 0.2% in diet, day 0): 152.3 ± 5.5 g | Body weight ([3]; 0.2% in diet, day 1): 151.3 ± 4.7 g | Body weight ([3]; 0.2% in diet, day 2): 145.4 ± 4.9 g | Body weight ([3]; 0.2% in diet, day 3): 139.0 ± 4.8 g | Body weight ([3]; 0.2% in diet, day 4): 137.4 ± 4.9 g | Body weight ([3]; 0.2% in diet, day 5): 134.5 ± 4.5 g | Body weight ([3]; 0.2% in diet, day 6): 130.7 ± 5.1 g | Body weight ([3]; 0.2% in diet, day 7): 127.7 ± 5.2 g | Body weight ([3]; 0.2% in diet, day 8, listed as Ketone): 122.3 ± 5.8 g | Body weight ([3]; 0.2% in diet, day 8, listed as ketone): 122.3 g | diarrhea ([4]; day 8): 4 of the rats in the ketone group were developing diarrhea | death ([4]; day 9): One of these rats died the following day | loose stools ([4]; day 9): Two other rats in this group showed loose stools on day 9
